Ends that are not written are not given here.
Tested on: C57BL/6N mice with induced myocardial infarction
Assay: Histology and immunohistochemistry of hearts after induced infarction
Assay type: in vivo
Conditions: infarcted mouse heart, up to 28 days; FIG. 6A and 6C
Procedure: To further study the newly identified effects of VIF (according to SEQ ID NO: 1), and especially in vivo, 8 to 10 week old wild type male C57BL/6N mice (Charles River, Germany) were intubated under anesthesia (100 mg/kg ketamine, 10 mg/kg xylazine, i.p.) and analgesia (0.1 mg/kg buprenorphine). The mice were ventilated with positive pressure and oxygenation using a rodent respirator (Harvard Apparatus, Germany). […]
A Gömöri trichrome staining was performed to determine the infarct size. Subsequently, three slices per mouse from 3 to 5 different mice were analyzed using ImageJ. after one of anti-SMA antibody (smooth muscle actin, DAKO, FIG. 6D), anti-MAC3 antibody (BD Pharmingen, FIG. 6B), anti-MPO antibody (Neomarkers, FIG. 6A) and anti-CD31 antibody (Santa Cruz Biotechnology, FIG. 6E) staining, followed by staining with fluorescein isothiocyanate (FITC)—or a Cy3-conjugated secondary antibody (DAKO, Germany). Positively stained cells or double-positive stained cells (FIG. 6C for anti-MAC3/MPO) were counted in three different fields per slice and expressed as cells per field of view (200× magnification).

With “HSGFEDELSEVLENQSSQAELKEAVEEPSSKDVME [VIF]” the “infiltration of neutrophils (anti-MPO) compared to non-treated controls” value was “does not lead to an increased infiltration of neutrophils”.
